Assays:
[1] = molecular target: Cholinesterase (Homo sapiens, UniProt P06276); experiment: Inhibition of human recombinant BChE using butyrylthiocholine iodide as substrate by spectrophotometric analysis
[2] = molecular target: Microtubule-associated protein tau (Homo sapiens) (UniProt P10636); experiment: Inhibition of aggregation of tau protein (unknown origin) expressed in Escherichia coli BL21 (DE3) assessed as amyloid fibril formation at 10 uM after 24 hrs by thioflavin S fluorescence method
[3] = molecular target: Acetylcholinesterase (Homo sapiens, UniProt P22303); experiment: Inhibition of human recombinant AChE using acetylthiocholine iodide as substrate by spectrophotometric analysis
[4] = molecular target: Amyloid-beta precursor protein (Homo sapiens) (UniProt P05067); experiment: Inhibition of aggregation of amyloid beta-42 (unknown origin) expressed in Escherichia coli BL21 (DE3) assessed as amyloid fibril formation at 10 uM after 24 hrs by thioflavin S fluorescence method
Chain of Amyloid-beta precursor protein (Homo sapiens) (P05067 whole entry): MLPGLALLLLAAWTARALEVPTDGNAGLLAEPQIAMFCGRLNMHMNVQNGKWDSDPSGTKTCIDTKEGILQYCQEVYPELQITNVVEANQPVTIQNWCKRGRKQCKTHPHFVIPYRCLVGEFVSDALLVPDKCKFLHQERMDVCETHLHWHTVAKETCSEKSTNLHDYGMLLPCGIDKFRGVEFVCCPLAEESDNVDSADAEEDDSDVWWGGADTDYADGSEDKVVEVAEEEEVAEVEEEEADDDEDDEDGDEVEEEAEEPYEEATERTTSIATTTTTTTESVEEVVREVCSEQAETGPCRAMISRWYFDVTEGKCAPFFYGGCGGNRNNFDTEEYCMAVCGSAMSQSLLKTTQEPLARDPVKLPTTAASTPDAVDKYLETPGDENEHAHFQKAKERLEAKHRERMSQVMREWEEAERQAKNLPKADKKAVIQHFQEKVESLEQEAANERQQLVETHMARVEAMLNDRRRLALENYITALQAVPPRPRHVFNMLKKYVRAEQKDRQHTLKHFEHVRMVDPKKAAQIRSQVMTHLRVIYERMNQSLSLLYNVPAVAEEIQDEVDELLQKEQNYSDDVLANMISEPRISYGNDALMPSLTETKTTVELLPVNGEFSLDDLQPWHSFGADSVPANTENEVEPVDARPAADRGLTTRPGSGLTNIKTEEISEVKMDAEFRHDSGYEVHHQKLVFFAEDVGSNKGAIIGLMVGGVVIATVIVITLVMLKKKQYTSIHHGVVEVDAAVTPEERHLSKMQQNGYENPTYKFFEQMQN

Chain of Cholinesterase (P06276 whole entry): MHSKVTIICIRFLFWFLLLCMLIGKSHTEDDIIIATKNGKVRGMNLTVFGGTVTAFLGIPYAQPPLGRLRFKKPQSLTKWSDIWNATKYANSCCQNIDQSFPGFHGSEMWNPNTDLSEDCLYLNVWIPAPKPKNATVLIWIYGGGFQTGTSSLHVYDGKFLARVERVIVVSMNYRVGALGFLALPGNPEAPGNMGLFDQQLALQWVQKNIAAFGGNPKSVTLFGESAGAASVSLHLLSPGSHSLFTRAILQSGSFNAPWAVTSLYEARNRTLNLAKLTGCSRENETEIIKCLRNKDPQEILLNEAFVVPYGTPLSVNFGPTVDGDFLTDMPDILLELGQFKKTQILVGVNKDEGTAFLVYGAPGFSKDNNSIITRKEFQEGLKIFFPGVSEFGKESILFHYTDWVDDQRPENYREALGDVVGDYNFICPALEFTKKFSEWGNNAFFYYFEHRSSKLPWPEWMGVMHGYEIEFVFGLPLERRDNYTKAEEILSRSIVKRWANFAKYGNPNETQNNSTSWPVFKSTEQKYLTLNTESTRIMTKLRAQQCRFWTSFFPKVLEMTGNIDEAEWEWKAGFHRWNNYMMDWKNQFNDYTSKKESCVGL
Chain of Acetylcholinesterase (P22303 whole entry): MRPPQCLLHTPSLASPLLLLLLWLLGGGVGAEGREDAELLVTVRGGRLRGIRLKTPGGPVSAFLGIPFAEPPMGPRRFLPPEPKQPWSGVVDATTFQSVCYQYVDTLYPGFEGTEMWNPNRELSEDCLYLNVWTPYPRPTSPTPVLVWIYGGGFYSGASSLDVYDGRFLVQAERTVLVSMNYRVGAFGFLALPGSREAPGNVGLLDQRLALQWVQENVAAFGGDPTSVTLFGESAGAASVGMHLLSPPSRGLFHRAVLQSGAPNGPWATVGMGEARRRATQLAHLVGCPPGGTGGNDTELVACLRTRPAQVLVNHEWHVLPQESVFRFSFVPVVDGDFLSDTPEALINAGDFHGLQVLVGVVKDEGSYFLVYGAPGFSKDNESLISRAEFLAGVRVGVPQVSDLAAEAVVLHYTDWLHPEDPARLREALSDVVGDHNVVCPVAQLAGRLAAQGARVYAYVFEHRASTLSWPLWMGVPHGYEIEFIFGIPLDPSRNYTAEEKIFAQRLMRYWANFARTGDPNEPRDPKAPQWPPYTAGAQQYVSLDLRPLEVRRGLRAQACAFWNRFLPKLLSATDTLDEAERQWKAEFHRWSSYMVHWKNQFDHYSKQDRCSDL
Chain of Microtubule-associated protein tau (Homo sapiens) (P10636 whole entry): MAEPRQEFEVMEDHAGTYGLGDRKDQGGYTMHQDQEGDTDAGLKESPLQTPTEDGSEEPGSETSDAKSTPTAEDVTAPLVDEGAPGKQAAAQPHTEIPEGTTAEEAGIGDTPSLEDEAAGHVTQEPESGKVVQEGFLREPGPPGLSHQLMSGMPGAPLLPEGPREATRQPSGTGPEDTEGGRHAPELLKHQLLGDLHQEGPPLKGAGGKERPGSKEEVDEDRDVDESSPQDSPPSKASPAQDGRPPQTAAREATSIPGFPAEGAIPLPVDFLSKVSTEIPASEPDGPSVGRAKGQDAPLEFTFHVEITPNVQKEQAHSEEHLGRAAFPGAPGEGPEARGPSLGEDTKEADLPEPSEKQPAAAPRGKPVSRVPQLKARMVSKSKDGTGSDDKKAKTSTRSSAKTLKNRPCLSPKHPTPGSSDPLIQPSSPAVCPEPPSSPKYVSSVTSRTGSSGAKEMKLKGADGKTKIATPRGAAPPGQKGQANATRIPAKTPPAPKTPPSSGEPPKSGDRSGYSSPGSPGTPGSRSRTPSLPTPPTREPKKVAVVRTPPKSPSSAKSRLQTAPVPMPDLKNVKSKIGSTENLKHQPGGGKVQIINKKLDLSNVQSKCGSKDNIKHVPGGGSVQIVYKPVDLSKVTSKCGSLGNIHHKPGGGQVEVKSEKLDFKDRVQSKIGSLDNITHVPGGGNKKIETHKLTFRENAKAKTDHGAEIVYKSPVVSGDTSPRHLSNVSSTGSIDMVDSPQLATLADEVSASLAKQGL

Compound	IC50 ([1]; read-out: IC50) [nM]	inhibition [2] [%]	IC50 ([3]; read-out: IC50) [nM]	inhibition [4] [%]	IC50 [1]	IC50 [3]
O=C(NCCCCCNc1c2c(nc3cc(Cl)ccc13)CCCC2)c1ccc2nc(-c3ccc(Cl)cc3)c3c(c2c1)NCCC3	337	57.7	14.2	54.3	–	–
O=C(NCCCCNc1c2c(nc3cc(Cl)ccc13)CCCC2)c1ccc2nc(-c3ccc(Cl)cc3)c3c(c2c1)NCCC3	205	58.9	14.2	55.8	–	–
O=C(NCCCCCCCCNc1c2c(nc3cc(Cl)ccc13)CCCC2)c1ccc2nc(-c3ccc(Cl)cc3)c3c(c2c1)NCCC3	–	68.7	–	77.5	–	–
Nc1c2c(nc3cc(Cl)ccc13)CCCC2	–	1.4	–	11	–	–
CCOC(=O)c1ccc2nc(-c3ccc(Cl)cc3)c3c(c2c1)OCCC3	–	27.9	–	41.8	Not Active	Not Active
O=C(NCCCNc1c2c(nc3cc(Cl)ccc13)CCCC2)c1ccc2nc(-c3ccc(Cl)cc3)c3c(c2c1)NCCC3	120	40.7	0.006	52.5	–	–
O=C(NCCCCCCCCNc1c2c(nc3cc(Cl)ccc13)CCCC2)c1ccc2nc(-c3ccc(Cl)cc3)c3c(c2c1)OCCC3	223	37.8	19.3	54.6	–	–
